# Patent US20240277727A1, “CHARGED ION CHANNEL BLOCKERS AND METHODS FOR USE” (Nocion Therapeutics, Inc., priority 2019, published 2024)
# Assays:
# [1] = PAMPA membrane permeability assay; assay type: in vitro ADME; details: pH 7.4, GIT lipid, 4 hours incubation
# Experimental: The PAMPA assay (pION, Inc., Woburn MA) was used to determine the ability of compounds of the invention to cross an artificial lipid membrane by passive diffusion. Test compounds were dissolved in DMSO (10 mM) and diluted 200-fold in buffer (pION Inc., pH 7.4) to provide 50 μM stock solutions. Buffer (150 μL) was added to a UV blank plate and stock solutions (150 μL) were transferred to a UV reference plate. The blank and reference spectrum were read using a spectrophotometer. Stock solutions (200 μL) were added to the donor plate of the PAMPA sandwich plate and an accept plate painted with GIT lipid (pION Inc, 5 μL) was placed on top. Buffer (200 μL) was added to the acceptor plate and the PAMPA sandwich plate was incubated for 4 hours. Aliquots (150 μL) from the acceptor plate were added to a UV plate and read as acceptor spectrum. Aliquots (150 μL) of the donor solutions were added to a UV analysis plate and read as donor spectrum. The permeability coefficient of test compounds was calculated using PAMPA Explorer™ software (version 3.5.0.4) based on the AUC of the reference plate, the donor plate, and the acceptor plate.
# NaV1.7 [2] = target: T1, NaV1.7 (Homo sapiens, UniProt Q15858); experiment: Intracellular (internal block) inhibition of NaV1.7 current, whole cell patch clamp; assay type: cell-based; details: compound in internal solution; for inhibition at 1 µM: read-out: Nav 1.7 Intracellular Inhibition
# T1 construct: expressed in transfected cells; tetracycline-inducible, kept under hygromycin and blasticidin selection
# Experimental: (§1) NaV1.7 was expressed upon induction with tetracycline. Cells were cultured in DMEM containing 10% dialyzed Fetal Bovine Serum (VWR, Radnor, PA), 1% Glutamax (VWR, Radnor, PA), 1% Penicillin-Streptomycin (VWR, Radnor, PA), 100 mg/L Hygromycin (Thermo Fisher Scientific, Waltham, MA and 5 mg/L Blasticidin (Alfa Aesar, Haverhill, MA). Cells were grown and maintained at 37° C. in a humidified environment containing 10% CO2 in air. Cells were detached from the culture flask for passage and harvested using 0.05% Trypsin-EDTA (Thermo Fisher Scientific, Waltham, MA). To induce NaV1.7, cells were induced with tetracycline (0.1-1 μg/mL, IBI Scientific, Peosta, IA) the day before recording and plated onto 24-well plates. Cells were washed with DPBS (VWR, Radnor, PA), trypsinized and then triturated five times in 10 mL of growth media to break apart cell aggregates. For one 24-well plate, 2 mL of cell suspension was mixed with 23 mL of fresh growth media and 0.1-1 μg/mL tetracycline added. 1 ml of mixed media with cells was then added to each well of a 24-well plate, with a 12 mm coverslip already placed in the bottom of the well. Cells were then incubated in 37° C. and 10% CO2 overnight.
# The intracellular solution contained the following (in mM) CsCl 135, NaCl 10, EGTA 10, HEPES 10, MgCl2 2, adjusted to pH 7.2 with CsOH. The external solution was a normal Ringer solution containing (in mM) NaCl 155, HEPES 10, glucose 10, KCl 3.5, CaCl2 1.5, MgCl2 1 adjusted to pH 7.4 with NaOH. CsCl is from Alfa Aesar, Haverhill, MA. All other chemicals are from Sigma-Aldrich, St. Louis, MO. In order to test the degree of internal block by test compounds the compounds were dissolved in internal solution at the indicated test concentration. […] In order to test the degree of external block by test compounds the compounds were dissolved in external solution at the indicated test concentration.
# 18-24 hours after cells were induced with tetracycline, coverslips were placed into a chamber filled with Normal Ringer solution at room temperature and the chamber placed on a microscope. Pipettes were pulled from borosilicate glass on a P97 puller (Sutter Instrument, Novato, CA) and polished with a MF-830 Microforge (Narishige International USA, Inc, Amityville, NY) to have a resistance of 1.5-2.5 MΩ when filled with CsCl internal solution at room temperature. Healthy cells (those that are round and translucent with no visible blemishes) were chosen for seal formation. A seal was formed between the pipette and the cell, and a brief pulse of suction was used to “break in” and establish the whole-cell configuration. The membrane potential was held at −100 mV before the voltage protocol began. Only cells with series resistance between 1.5-5 MΩ were retained for analysis. The voltage protocol was as follows: Cells were held at −100 mV for 12 ms followed by a hyperpolarizing step to −105 mV for 12 ms to monitor the leak. Cells were then stepped back to −100 mV for 40 ms. Cells were then depolarized to −20 mV for 10 ms and then returned to −100 mV for 26 ms.
# Once the recording was started, the voltage protocol was run at 30 second intervals for 5 minutes to get a stable baseline. This was followed by four 30-second periods of 5 Hz stimulation of the same voltage protocol separated by 1 minute of rest which was then followed by 0.33 Hz stimulation after the last train. Currents were recorded using PatchMaster software with Heka EPC10 (HEKA Electronics, Lambrecht, Germany). Only cells with inward current amplitudes at −20 m V between 400 pA and 4 nA were accepted. In addition, cells having leak currents greater than 10% of their current amplitudes were discarded.
# (§2) The data was plotted using the Patchmaster software (HEKA Electronics, Lambrecht, Germany) and analyzed by plotting the minimum current during the voltage step to −20 m V (peak inward current) as a function of time. […]
# NaV1.7 [3] = target: T1, NaV1.7; experiment: Extracellular (external block) inhibition of NaV1.7 current, whole cell patch clamp; assay type: cell-based; details: compound in external solution
# Experimental: as §1, with “For one 24-well plate, 2 mL of cell suspension was mixed with 23 mL of fresh growth media and 0.1-1 μg/mL tetracycline added. 1 ml of mixed media with cells was then added to each well of a 24-well plate, with a 12 mm coverslip already placed in the bottom of the well. Cells were then incubated in 37° C. and 10% CO2 overnight.” left out
# Once the recording was started, the voltage protocol was run at 30 second intervals for 5 minutes to get a stable baseline. […] Currents were recorded using PatchMaster software with Heka EPC10 (HEKA Electronics, Lambrecht, Germany). […]
# as §2
# T1 sequence (Q15858 whole entry): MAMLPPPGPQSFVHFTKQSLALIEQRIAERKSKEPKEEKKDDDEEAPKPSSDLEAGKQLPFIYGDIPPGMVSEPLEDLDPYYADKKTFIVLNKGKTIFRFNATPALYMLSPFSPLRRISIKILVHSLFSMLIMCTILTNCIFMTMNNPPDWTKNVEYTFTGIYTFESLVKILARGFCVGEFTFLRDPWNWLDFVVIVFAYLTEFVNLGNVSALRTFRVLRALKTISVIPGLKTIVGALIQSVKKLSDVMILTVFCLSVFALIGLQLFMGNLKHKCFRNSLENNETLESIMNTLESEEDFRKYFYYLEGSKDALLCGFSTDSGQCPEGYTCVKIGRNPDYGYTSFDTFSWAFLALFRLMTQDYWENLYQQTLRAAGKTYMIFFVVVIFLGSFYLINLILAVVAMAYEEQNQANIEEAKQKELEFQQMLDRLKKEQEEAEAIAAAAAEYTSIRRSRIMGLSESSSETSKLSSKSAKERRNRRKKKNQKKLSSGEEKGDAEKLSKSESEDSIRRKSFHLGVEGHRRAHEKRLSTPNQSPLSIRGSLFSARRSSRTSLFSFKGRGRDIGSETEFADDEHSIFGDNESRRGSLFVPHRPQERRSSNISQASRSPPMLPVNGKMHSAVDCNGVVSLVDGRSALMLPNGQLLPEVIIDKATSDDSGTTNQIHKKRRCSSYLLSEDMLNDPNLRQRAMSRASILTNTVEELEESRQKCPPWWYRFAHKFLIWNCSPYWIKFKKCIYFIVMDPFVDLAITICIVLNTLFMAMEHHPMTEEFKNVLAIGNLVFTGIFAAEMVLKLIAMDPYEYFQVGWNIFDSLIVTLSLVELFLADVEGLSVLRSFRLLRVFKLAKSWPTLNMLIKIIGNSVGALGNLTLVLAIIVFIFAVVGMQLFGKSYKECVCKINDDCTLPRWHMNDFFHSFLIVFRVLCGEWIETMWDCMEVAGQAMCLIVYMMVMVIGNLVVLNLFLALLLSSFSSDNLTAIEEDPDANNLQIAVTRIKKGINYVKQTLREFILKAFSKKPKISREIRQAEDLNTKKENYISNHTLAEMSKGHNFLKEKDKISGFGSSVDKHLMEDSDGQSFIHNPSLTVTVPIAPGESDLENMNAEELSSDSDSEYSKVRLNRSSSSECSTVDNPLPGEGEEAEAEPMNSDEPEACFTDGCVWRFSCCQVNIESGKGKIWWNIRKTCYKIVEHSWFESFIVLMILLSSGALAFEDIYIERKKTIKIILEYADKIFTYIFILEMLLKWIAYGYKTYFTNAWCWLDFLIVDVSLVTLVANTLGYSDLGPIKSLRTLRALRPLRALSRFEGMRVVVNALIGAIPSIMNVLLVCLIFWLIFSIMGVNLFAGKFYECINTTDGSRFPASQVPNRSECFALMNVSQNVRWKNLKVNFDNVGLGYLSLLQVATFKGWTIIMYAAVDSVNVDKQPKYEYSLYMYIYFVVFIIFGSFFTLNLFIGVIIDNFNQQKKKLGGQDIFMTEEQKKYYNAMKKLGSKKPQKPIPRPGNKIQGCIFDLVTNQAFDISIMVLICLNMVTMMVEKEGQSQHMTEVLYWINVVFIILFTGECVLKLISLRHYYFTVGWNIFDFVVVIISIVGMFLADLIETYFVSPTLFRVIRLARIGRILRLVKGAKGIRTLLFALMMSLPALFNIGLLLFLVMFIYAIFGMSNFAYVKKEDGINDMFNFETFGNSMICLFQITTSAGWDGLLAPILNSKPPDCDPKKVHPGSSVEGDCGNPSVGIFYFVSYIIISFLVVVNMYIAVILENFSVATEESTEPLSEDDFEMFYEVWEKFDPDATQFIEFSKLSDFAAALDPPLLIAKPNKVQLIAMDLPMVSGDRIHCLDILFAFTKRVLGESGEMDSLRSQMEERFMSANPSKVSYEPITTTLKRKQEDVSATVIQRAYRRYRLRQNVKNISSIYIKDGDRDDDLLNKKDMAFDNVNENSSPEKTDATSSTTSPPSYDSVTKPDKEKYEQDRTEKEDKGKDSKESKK
PAMPA (10^−6 cm/s) [1],inhibition at 1 µM (NaV1.7 [2]) [%],inhibition at 1 µM (NaV1.7 [3]; test concentration of 1 μM) [%],"Papp at 4 h, 50 µM ([1]; PAMPA) [×10⁻⁶ cm/s]",inhibition at 3 µM (NaV1.7 [2]; test concentration of 3 μM) [%],inhibition at 3 µM (NaV1.7 [3]; test concentration of 3 μM) [%],Structure (SMILES)
+ (“+” (<0.1 10^−6 cm/s)),70 to 90,–,–,–,–,CC[N+]1(CC(=O)Nc2c(C)csc2C(=O)OC)CCCC(c2ccccc2)C1.[I-] (stereo not shown) [F]
+ (“+” (<0.1 10^−6 cm/s)),> 90,–,–,–,–,CCCOC(=O)c1scc(C)c1NC(=O)C[N+]1(Cc2ccccc2)CCCCCC1.[Br-] [C]
++ (“++” (0.1-2.0 10^−6 cm/s)),70 to 90,–,–,–,–,Cc1csc(C(=O)OC(C)C)c1NC(=O)C[N+]1(Cc2ccccc2)CCCCCC1.[Br-] [E]
+ (“+” (<0.1 10^−6 cm/s)),40 to 70,–,–,–,–,COC(=O)c1scc(C)c1NC(=O)C[N+]1(Cc2ccccc2)CCCC1.[Br-] [A]
+ (“+” (<0.1 10^−6 cm/s)),40 to 70,–,–,–,–,CCC(C(=O)Nc1c(C)csc1C(=O)OC)[N+]1(Cc2ccccc2)CCCCC1.[Br-] (stereo not shown) [G]
+ (“+” (<0.1 10^−6 cm/s)),40 to 70,–,–,–,–,Cc1csc(C)c1NC(=O)C[N+]1(Cc2ccccc2)CCCCCC1.[Br-] [H]
+ (“+” (<0.1 10^−6 cm/s)),> 90,< 40,–,–,–,CCOC(=O)c1scc(C)c1NC(=O)C[N+]1(Cc2ccccc2)CCCCCC1.[Br-] [D]
++ (“++” (0.1-2.0 10^−6 cm/s)),70 to 90,–,0.4,> 95,< 40,"COC(=O)c1scc(C)c1NC(=O)C[N+]1(Cc2ccccc2)CCCCCC1.[Br-] [Compound-31, 1-benzyl-1-(2-((2-(methoxycarbonyl)-4-methylthiophen-3-yl)amino)-2-oxoethyl) azepan-1-ium bromide]"
++ (“++” (0.1-2.0 10^−6 cm/s)),40 to 70,–,–,–,–,COC(=O)c1scc(C)c1NC(=O)C[N+]1(Cc2ccccc2)CCCCC1.[Br-] [B]
